Measured values reported in US20130338165A1 (Promentis Pharmaceuticals, Inc., priority 2012, published 2013).

How the values were obtained:
[1] = target: T1, system xc− (Homo sapiens, UniProt Q9UPY5); assay: in vitro screening assay of system xc− (14C-cystine uptake, 3H-glutamate) in 1321N1 cells; format: cell-based; details: human glial cells from brain astrocytoma (1321N1)
T1 construct: a cell line with high system xc− expression; endogenous in cells; host or cells: 1321N1 human astrocytoma cells
T1 sequence (Q9UPY5 1-501): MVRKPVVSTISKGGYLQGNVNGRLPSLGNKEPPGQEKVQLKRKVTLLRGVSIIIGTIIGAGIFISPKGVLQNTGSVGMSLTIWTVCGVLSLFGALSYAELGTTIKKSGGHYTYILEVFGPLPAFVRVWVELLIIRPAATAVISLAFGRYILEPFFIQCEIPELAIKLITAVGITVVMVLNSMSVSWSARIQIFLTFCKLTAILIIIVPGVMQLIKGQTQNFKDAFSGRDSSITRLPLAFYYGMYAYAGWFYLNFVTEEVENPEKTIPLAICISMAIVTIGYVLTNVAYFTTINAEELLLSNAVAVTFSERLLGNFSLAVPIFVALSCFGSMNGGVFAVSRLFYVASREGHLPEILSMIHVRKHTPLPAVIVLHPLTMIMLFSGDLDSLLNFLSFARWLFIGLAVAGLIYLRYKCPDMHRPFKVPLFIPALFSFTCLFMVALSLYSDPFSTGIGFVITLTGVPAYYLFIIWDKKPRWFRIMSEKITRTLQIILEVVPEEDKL
T1 sequence (P08195 1-529 partner): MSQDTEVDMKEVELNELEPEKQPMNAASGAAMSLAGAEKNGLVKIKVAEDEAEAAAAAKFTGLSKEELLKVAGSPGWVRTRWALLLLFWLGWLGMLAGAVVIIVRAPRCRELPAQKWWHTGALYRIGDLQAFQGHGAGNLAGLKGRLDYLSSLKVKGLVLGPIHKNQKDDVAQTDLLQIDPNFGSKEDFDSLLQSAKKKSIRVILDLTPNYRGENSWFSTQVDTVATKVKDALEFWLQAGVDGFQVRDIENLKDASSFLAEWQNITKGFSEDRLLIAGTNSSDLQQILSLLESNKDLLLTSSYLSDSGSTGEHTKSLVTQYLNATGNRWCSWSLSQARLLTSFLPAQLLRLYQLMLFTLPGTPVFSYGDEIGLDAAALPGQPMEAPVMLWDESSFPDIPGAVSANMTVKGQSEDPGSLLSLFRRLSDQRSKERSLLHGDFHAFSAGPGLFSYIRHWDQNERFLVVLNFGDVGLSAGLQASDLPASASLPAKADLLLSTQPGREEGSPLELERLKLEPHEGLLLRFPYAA
From the text: Using an in vitro screening assay conducted in human glial cells from brain astrocytoma (1321N1), a cell line with high system xc− expression, the compound with the following formula: […]

[2] = pre-pulse inhibition (PPI) model of antipsychotic-like activity; format: in vivo; details: orally-active
[3] = elevated plus maze (EPM) model of anxiolytic-like activity; format: in vivo; details: orally-active
[4] = system: brain of rats; details: systemic administration; cited from earlier work
[5] = system: alpha-synuclein overexpressing mice; details: mouse, in vivo; cited from earlier work
[6] = cited from earlier work
[7] = system: mice treated with MPTP; details: cited from earlier work
[8] = system: brain of gerbils; details: systemic administration; cited from earlier work
[9] = intravenous administration, clinical experiments; cited from earlier work
[10] = system: cells; details: cited from earlier work

Compound: O=C(Cc1ccccc1)N[C@@H](CSC(c1ccccc1)(c1ccccc1)c1ccccc1)C(=O)O
- 3H-glutamate (glutamate release) [1]: significant elevations
- uptake of 14C-cystine [1]: robust and significant decrease
- behavioral effects in PPI model [2]: significant behavioral effects
- behavioral effects in EPM model [3]: significant behavioral effects

Compound: CC(=O)N[C@@H](CS)C(=O)O [NAC, N-acetylcysteine]
- protection against oxidative stress in the brain [4]: provides protection against oxidative stress
- therapeutic potential in alpha-synuclein overexpressing mice [5]: exhibited therapeutic potential
- solubility characteristics [6]: poor
- neuroprotective effect in different MPTP mouse models ([7]; Aoyama et al., 2008, Perry et al., 1985): partial neuroprotective effect
- therapeutic potential in MPTP-treated mice ([7]; mouse, in vivo): exhibited therapeutic potential
- protection against oxidative stress in the brain [8]: provides protection against oxidative stress

Compound: N[C@@H](CCC(=O)N[C@@H](CS)C(=O)NCC(=O)O)C(=O)O [glutathione]
- reduction of motor impairment and disability [9]: 40%
- solubility characteristics [6]: poor

Compound: CC(=O)N[C@H](CS)C(N)=O
- protection of cells from neurotoxicity induced by rotenone [10]: protected cells from neurotoxicity
